Experimental data as given in US4939134A, “26-aminocholesterol and derivatives and analogs thereof in the regulation of cholesterol accumulation in body tissue” (New York University, priority 1988, dated 1990).

Experiments:
Human Fibroblasts = assay: De novo cholesterol synthesis in human fibroblasts (D2O); type: cell-based; conditions: for % DE NOVO (De Novo Cholesterol Synthesis): 96 h, n = 3, untreated 19.0
Description: Normal LDLR(+) human fibroblasts (GM3440) were obtained from the National Institute of General Medical Sciences Human Genetic Cell Repository. Stock fibroblast monolayers were maintained in T-75 disposable Nunc flasks, in a medium comprising 10 ml of MEM (Eagle's Minimum Essential Medium with Earl's salts, pH 7.4) supplemented with 10% (v/v) fetal bovine serum (FBS), 2% (v/v) non-essential and essential amino acids, 1% (v/v) MEM vitamins, 1% L-glutamine (292 ug/ml), 1% penicillin (100 U/ml)-streptomycin (100 ug/ml). The fibroblast stock was maintained at 37° C. in a humidified atmosphere of 5% CO2 and 95% air.
For experiments using fibroblasts, confluent stock cultures (5-18 passages) were washed once with Dulbecco's PBS (phosphate buffered saline) prior to the addition of 3 ml aliquots of experimental MEM containing 25% (v/v) D2 O, 9% (v/v) dilapidated FBS, 1% FBS (v/v), 1% MEM vitamins and L-glutamine, and 2% of essential and non-essential amino acids and 20 mM HEPES buffer.
(§1) The fibroblast and hepatoblastoma cells were cultured in media containing 25% D2 O and 1% FBS in order to determine de novo cholesterol synthesis under conditions that permit receptor mediated cholesterol transport, according to the method of Easterman & Javitt et al., J. Lipid Res., 26: 950-954 (1985). Dish cultures of each cell type were prepared, and 26-aminocholesterol, dissolved in N,N-dimethylformamide (DMF, 9 ul per dish, 0.3% v/v) was added to each culture. The cells were then grown to confluence (96 hours, day 5). […] Duplicate or triplicate dishes containing 9 ul of DMF, but without 26-aminocholesterol, were used as controls.
After 96 hours of incubation, medium was removed from the cell cultures, and the cells were washed with Dulbecco's PBS and were harvested with 0.05% trypsin - 0.02% EDTA. The protease was deactivated with an equivolume aliquot of soybean trypsin inhibitor, and the resulting cell suspension was centrifuged for 5 minutes at 500xg. An internal standard of 5B-cholestan-3B-ol was added to the pellets prior to extraction with an 8:4:3 chloroform:methanol:water Folch mixture, as described in Folch et al., J. Biol. Chem., 266: 497-509 (1957). An aliquot of the extract was blown to dryness under nitrogen and silylated with 2:1:1 MSTFA (a sylated reagent supplied by Pierce Co.): toluene:-pyridine. Free cholesterol was determined by gas-liquid chromatography (GLC) on a Perkin-Elmer capillary gas-liquid chromatography model 8320 fitted with a 20 m DE-1 methylsilicon glass column (Supelco). The remaining extract was dried and saponified with 2% ethanolic KOH at 80° C. for one hour. The […] was then re-extracted and total cholesterol was measured by GLC after silylation. Cholesterol ester was calculated as the difference between the total and free cholesterol determinations. Newly synthesized cholesterol was determined by GLC-MS isotope mass ratios, using a Hewlett-Packard GC-MS spectrometer model 5890 fitted with DB-1 methyl silicon 0.18 i.d. 20 m glass column (Supelco), according to the method of J. Lipid. Res., 26: 950-954, supra. […]

HepG2 Cells = assay: Total cell cholesterol in HepG2 hepatocytes; type: cell-based, human; conditions: 96 h, n = 3
Text: HepG2 cells were obtained from Dr. Barbara Knowles of the Wistar Institute, Pennsylvania. The HepG2 stock monolayers were maintained under the same conditions as the fibroblast monolayers, in a medium comprising MEM supplemented with 10% heat-inactivated FBS, and 1% (v/v) each of penicillin-streptomycin solution, non-essential and essential amino acids, and L-glutamine.
For experiments using HepG2 cells, confluent stock monolayers were washed once with Dulbecco's PBS, dissociated with 0.05-0.02% trypsin-EDTA followed by treatment with deoxyribonuclease I (0.1%), and were seeded (3.0×10^6) under identical conditions. The experimental MEM contained 25% (v/v) D2 O, 9% (v/v) delipidated FBS, and 1% (v/v) each of heat-inactivated FBS, penicillin-streptomycin, essential and non-essential amino acids, L-glutamine and 20 mM HEPES.
as §1
After 96 hours of incubation, medium was removed from the cell cultures, and the cells were washed with Dulbecco's PBS and were harvested with 0.05% trypsin - 0.02% EDTA. The protease was deactivated with an equivolume aliquot of soybean trypsin inhibitor, and the resulting cell suspension was centrifuged for 5 minutes at 500xg. An internal standard of 5B-cholestan-3B-ol was added to the pellets prior to extraction with an 8:4:3 chloroform:methanol:water Folch mixture, as described in Folch et al., J. Biol. Chem., 266: 497-509 (1957). An aliquot of the extract was blown to dryness under nitrogen and silylated with 2:1:1 MSTFA (a sylated reagent supplied by Pierce Co.): toluene:-pyridine. Free cholesterol was determined by gas-liquid chromatography (GLC) on a Perkin-Elmer capillary gas-liquid chromatography model 8320 fitted with a 20 m DE-1 methylsilicon glass column (Supelco). The remaining extract was dried and saponified with 2% ethanolic KOH at 80° C. for one hour. The […] was then re-extracted and total cholesterol was measured by GLC after silylation. Cholesterol ester was calculated as the difference between the total and free cholesterol determinations. Newly synthesized cholesterol was determined by GLC-MS isotope mass ratios, using a Hewlett-Packard GC-MS spectrometer model 5890 fitted with DB-1 methyl silicon 0.18 i.d. 20 m glass column (Supelco), according to the method of J. Lipid. Res., 26: 950-954, supra.
For purposes of comparison, ^125 I-LDL and cholesterol assays were also conducted in cultures prepared according to the above methods, but incubated with 26-hydroxycholesterol in one set of experiments and with the sterol 26-thiacholesterol in another set of experiments. These sterols were obtained according to known methods, similar to those described above for 26-aminocholesterol.

Compound	de novo cholesterol synthesis (in words) (Human Fibroblasts)	% DE NOVO (De Novo Cholesterol Synthesis) (Human Fibroblasts; 0.156 uM) [%]	% DE NOVO (De Novo Cholesterol Synthesis) (Human Fibroblasts; 0.312 uM) [%]	% DE NOVO (De Novo Cholesterol Synthesis) (Human Fibroblasts; 0.625 uM) [%]	TOTAL CHOLESTEROL (HepG2 Cells; 0.156 uM)	TOTAL CHOLESTEROL (HepG2 Cells; 0.312 uM)	TOTAL CHOLESTEROL (HepG2 Cells; 0.625 uM)	% DE NOVO (De Novo Cholesterol Synthesis) (Human Fibroblasts; 5.0 uM) [%]	% DE NOVO (De Novo Cholesterol Synthesis) (Human Fibroblasts; 10.0 uM) [%]	% DE NOVO (De Novo Cholesterol Synthesis) (Human Fibroblasts; 20.0 uM) [%]	TOTAL CHOLESTEROL (HepG2 Cells; 5.0 uM)	TOTAL CHOLESTEROL (HepG2 Cells; 10.0 uM)	TOTAL CHOLESTEROL (HepG2 Cells; 20.0 uM)
C[C@@H](CN)CCC[C@@H](C)[C@H]1CC[C@H]2[C@@H]3CC=C4C[C@@H](O)CC[C@]4(C)[C@H]3CC[C@]12C [26-NH2, 26-aminocholesterol]	significant reductions	16.7	10.0	2.7	30.6 +/- 3.7 ug cholesterol per mg cell pro	25.0 +/- 0.6 ug cholesterol per mg cell pro	28.8 +/- 1.8 ug cholesterol per mg cell pro	–	–	–	–	–	–
CC(CO)CCC[C@@H](C)[C@H]1CC[C@H]2[C@@H]3CC=C4C[C@@H](O)CC[C@]4(C)[C@H]3CC[C@]12C (some centres unmarked) [26-OH, 26-hydroxycholesterol]	significant reductions	–	–	3.9	–	–	24.7 +/- 2.8 ug cholesterol per mg cell pro	–	–	–	–	–	–
CC(CS)CCC[C@@H](C)[C@H]1CC[C@H]2[C@@H]3CC=C4C[C@@H](O)CC[C@]4(C)[C@H]3CC[C@]12C (some centres unmarked) [26-SH]	no impact	–	–	–	–	–	–	27.8	21.9	13.6	25.5 +/- 4.3 ug cholesterol per mg cell pro	27.4 +/- 4.0 ug cholesterol per mg cell pro	23.2 +/- 1.2 ug cholesterol per mg cell pro
